Results reported in US7824680B2, “Methods for inhibiting angiogenesis” (The Regents of the University of California, priority 2001, dated 2010).

Tested on: mice
Assay: Murine bFGF matrigel plug angiogenesis, lectin-FITC fluorescence
Assay type: in vivo
Details: bFGF matrigel s.c. containing 25 μg/ml antibody or 1 mM peptide; 72 hours
Protocol: Angiogenesis was induced by subcutaneous injection of 400 μl of growth factor depleted matrigel supplemented 0.4 μg/ml bFGF and saline, 25 μg/ml function blocking anti-α4β1 antibodies or control antibodies. Alternatively, mice were injected with matrigel containing bFGF and 1 mM of the sequence EILDVPST (SEQ ID NO:52) or the control sequence EILEVPST (SEQ ID NO:53). After 72 hours, mice were injected with Bandiera Simplicifolia lectin-FITC conjugate. After 15 minutes, matrigel plugs were excised and homogenized. Fluorescence intensity within the lysed plug was determined and correlated with degree of angiogenesis as determined by standard immunohistochemical analyses.

Sequence: EILDVPST [peptide antagonist of integrin α4β1]
- growth factor-stimulated angiogenesis (fluorescence intensity within the lysed matrigel plug): selectively and specifically inhibited
